Entries after “also recorded” stand apart in the source; their conditions may differ.
Tests used:
mESC lines E14 and R1 = experiment: Whole gene expression profiling (microarray) of mESC lines E14 and R1; format: cell-based, mouse; details: APH plus inhibitor
Description: The quality of total RNA was first assessed using an Agilent Bioanalyzer 2100 (Agilent Technologies, Palo Alto, Calif.). Biotin-labeled cDNA targets were synthesized starting from 150 ng of total RNA. Double stranded cDNA synthesis and related cRNA was performed with GeneChip® WT Plus Kit (Affymetrix, Santa Clara, Calif.). With the same kit was synthesized the sense strand cDNA before to be fragmented and labeled. […] Each eukaryotic GeneChip® probe array contains probe sets for several B. subtilis genes that are absent in the samples analyzed (lys, phe, thr, and dap). This Poly-A RNA Control Kit contains in vitro synthesized, polyadenylated transcripts for these B. subtilis genes that are pre-mixed at staggered concentrations to allow GeneChip® probe array users to assess the overall success of the assay.
Hybridization was performed using the GeneAtlas™ Hybridization, Wash and Stain Kit. […] Targets were diluted in hybridization buffer at a concentration of 0.05 μg/ul, denatured at 99° C. for 5 minutes, incubated at 45° C. for 5 minutes and centrifuged at 5,000 rpm for 1 minute. The Array Strip is then moved to a hybridization tray, which contains the hybridization cocktails. A single Gene 2.1 PEG Array Strip is hybridized with four different biotin-labeled targets. Hybridizations were performed for 20 hours at 48° C. in the GeneAtlas™ Hybridization Station. The Array Strips were washed and stained in the GeneAtlas™ Personal Fluidics Station. At the end of this procedure the array strips were placed into the imaging tray, which contains the Array Holding buffer.
The array strips were imaged using the GeneAtlas™ Imaging Station. Affymetrix GeneAtlas™ Command Console software was used to acquire the Array Strip images and […].
The CAMERA gene set enrichment p-values were calculated using the limma package and the camera function 30.
In the GSVA based enrichment analysis, we used the MsigDB gene sets, and transformed the individual gene expression values into gene set expression values with the GSVA package 32. We calculated the gene set differential expression as in the gene level differential expression analysis, only skipping the RMA normalization step.

pZscan4-Emerald ESCs = experiment: FACS analysis of Zscan4-Emerald ESCs (Emerald-GFP positive cells); format: cell-based, mouse
Description: (§1) All treatments including APH, HU, UV, ATRi, ATMi and Chk1i were added in to fresh ESC medium and the cells were kept in 37° C. and 3% 02 tension for overnight (16-17 hrs) unless mentioned in each particular result section. APH was used at various concentrations ranging from 0.3 uM to 6 uM that is mentioned in each experiment in order to induce mild to acute replication stress response. Similarly, HU was used at 0.1 mM-3 mM. ATMi (KU-55933) and ATRi (VE 822) were used at the concentration of 10 uM and 1 uM respectively. Moreover, Chk1i (UCN-01) at the concentration of 100 nM was used. UV radiation was performed at the dosage ranging from 2 to 10 J/m2. For induction of ETAA1-AAD expression, Dox was used at the concentration of 1 μg/mL for 48 hrs.
ESCs were fixed and permeabilized using Cytoperm/Cytofix kit (BD Biosciences), and subsequently stained for one hour at room temperature with Alexa Fluor® 647 anti-H2AX-Phosphorylated (Ser139) antibody (Biolegend) or P-CHK1-PE conjugated antibody (cell signaling 12268). Cells were washed and acquired on a FACS Calibur instrument or Attune NxT (Thermo Fisher Scientific). For Emerald-GFP acquisition, cells were trypsinized, collected and subsequently acquired without fixation. Cell cycle profiles were acquired after incubation with DAPI (4′,6-diamidino-2-phenylindole) overnight. For Caspase3 FACS analysis after fixation and permeabilization, Cleaved Caspase3 antibody were used for one hr at RT followed by washes and one hr incubation in donkey anti rabbit secondary antibody. […]

[1] = system: 2C-like genes (Zscan4, MuERV-L/MERVL, Dux) in ESCs (E14, R1); experiment: qPCR for 2C-like specific genes in ESCs; format: cell-based, mouse; details: ESC lines E14 and R1; time and dosage-dependent
Description: as §1
RNA was extracted using RNeasy mini kit (QIAGEN), quantified by NanoDrop spectrophotometer and cDNA was prepared from 2 μg total DNA-depleted RNA using SuperScript™ III reverse transcriptase kit (Invitrogen cat #18080-093) following manufacturer's instructions. qPCR assay performed based on standard protocol using 10× SsoFast™ EvaGreen® Supermix or later 1× LightCycler 480 SYBR Green I Master (Roche, 04707516001), 0.5 μM primer mix and 5 ng of cDNA. GAPDH was used as internal control to normalise the qPCR data following ΔΔCt method, 10 μM primer mix and a total amount of cDNA corresponding to 5 ng of starting RNA for each reaction.

Zscan4 = details: previous work; cited from earlier work

Cn1c(=O)c2c(ncn2C)n(C)c1=O [Caffeine]
two placenta-related gene categories upon ATR inhibition (mESC lines E14 and R1): robustly suppressed

NC(=O)NO [HU, hydroxyurea]
number of Emerald-GFP positive (Em+) ESCs (pZscan4-Emerald ESCs; RS inducing agents, dose-dependent, qPCR and FACS): significant increase
expression of Zscan4 and MuERV-L (QPCR and FACS) [1]: significantly upregulated

O=c1cc(-c2cccc3c2Sc2ccccc2S3)oc(N2CCOCC2)c1 [KU-55933]
elevated expression of 2C-like specific genes (Zscan4, MERVL) upon APH and HU treatment (pZscan4-Emerald ESCs; inhibitor added under replication stress, flow cytometry and immunoblot, listed as ATM inhibitor): could not alter
number of Zscan4-Emerald positive cells (pZscan4-Emerald ESCs; normal culture condition, ATRi 1 uM, ATMi 10 uM): did not change; also recorded: did not significantly reduce

COC(=O)Nc1nc2ccc(C(=O)c3cccs3)cc2[nH]1 [nocodazole]
Zscan4 expression upon G2/M arrest (Zscan4): not sufficient to trigger Zscan4 expression
